Patent publication US11033600B2, “Protease transition state inhibitor prodrugs” (priority 2016, dated 2021)
Read-outs that look alike come from different tables or passages of the source.

Tests used:
[1] = IV, SC and PO routes, rats
[2] = target: norovirus 3CL protease (NV 3CLpro) (Norovirus, UniProt Q83883); test: FRET protease assay (3CL protease), enzyme inhibition; assay type: biochemical
Experimental: FRET protease assays. The FRET protease assay (3CL protease) was performed by preparing stock solutions of the substrate (Edans-DFHLQ/GP-Dabcyl, SEQ ID NO:1) and inhibitor in DMSO and diluting into assay buffer which was comprised of 20 mM HEPES buffer, pH 8, containing NaCl (200 mM), 0.4 mM EDTA, glycerol (60%), and 6 mM dithiothreitol (DTT). The protease was mixed with serial dilutions of each compound up to 100 μM or with DMSO in 25 μL of assay buffer and incubated at 37° C. for 30 min, followed by the addition of 25 μL of assay buffer containing substrate. Fluorescence readings were obtained using an excitation wavelength of 360 nm and an emission wavelength of 460 nm on a fluorescence microplate reader (FLx800; Biotec, Winoosk, Vt.) 1 h following the addition of substrate. Relative fluorescence units (RFU) were determined by subtracting background values (substrate-containing well without protease) from the raw fluorescence values. The dose-dependent FRET inhibition curves were fitted with a variable slope by using GraphPad Prism software (GraphPad, La Jolla, Calif.) in order to determine the IC50 values of the inhibitors.

[3] = tested on: NV in replicon harboring cells (HG23 cells); test: Cell-based assay: virus replication in NV replicon harboring cells (HG23 cells), qRT-PCR; set-up: species or system norovirus (NV)
Experimental: The effects of each inhibitor on virus replication were examined against NV in the NV replicon harboring cells (HG23 cells). Briefly, confluent and semi-confluent HG23 cells were incubated with medium containing DMSO (<0.1%) or each compound (up to 200 uM) for 48 h. After the incubation, total RNA was extracted and viral genome was quantitated with real-time quantitative RT-PCR (qRT-PCR). The EC50 values were determined by GraphPadPrism software.

[4] = Norovirus, HG23, given in M, read-out: EC50

Chain of norovirus 3CL protease (NV 3CLpro) (Q83883 1101-1281): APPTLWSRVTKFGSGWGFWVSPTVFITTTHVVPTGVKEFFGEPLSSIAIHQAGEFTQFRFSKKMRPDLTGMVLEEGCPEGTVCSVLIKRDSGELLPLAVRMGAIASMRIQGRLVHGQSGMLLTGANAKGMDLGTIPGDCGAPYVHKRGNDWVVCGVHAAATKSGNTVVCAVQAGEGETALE

CCCCCC(=O)OC([C@H](C[C@@H]1CCNC1=O)NC(=O)[C@H](CC1CCCCC1)NC(=O)OCc1cccc(Cl)c1)S(=O)(=O)O (stereo partly drawn) [Compound 11, (5S,8S)-1-(3-Chlorophenyl)-5-(cyclohexylmethyl)-3,6,11-trioxo-8-(((S)-2-oxopyrrolidin-3-yl)methyl)-2,10-dioxa-4,7-diazahexadecane-9-sulfonate]
Conversion of prodrug to the aldehyde form (compound 25) in rat plasma [1]: most of compound 11 was converted to the aldehyde form | IC50 ([2]; Table 1, ester prodrugs, average of at least two determinations, read-out: IC50 (50% inhibitory concentration in the enzyme assay)): 0.1 µM | EC50 ([3]; Table 1, ester prodrugs, HG23 cells, 48 h, read-out: EC50 (50% effective concentration in cell culture)): 15 nM

COC(=O)C(C)NC(=O)OC([C@H](C[C@@H]1CCNC1=O)NC(=O)[C@H](CC1CCCCC1)NC(=O)OCc1ccccc1)S(=O)(=O)O (stereo partly drawn) [Compound 23, (5 S,8S)-5-(Cyclohexylmethyl)-13-methyl-3,6,11,14-tetraoxo-8-(((S)-2-oxopyrrolidin-3-yl)methyl)-1-phenyl-2,10,15-trioxa-4,7,12-triazahexadecane-9-sulfonate]
IC50 ([2]; Table 2, carbamate prodrugs, read-out: IC50): 10.2 µM | EC50 ([3]; Table 2, carbamate prodrugs, HG23 cells, 48 h, read-out: EC50): 200 nM

CC(C)C[C@H](NC(=O)OCc1ccccc1)C(=O)N[C@@H](C[C@@H]1CCNC1=O)C(O)S(=O)(=O)O (stereo partly drawn) [Compound 24, reference compound]
IC50 ([2]; in μM, read-out: IC50): 0.8 µM | EC50 [3, 4]: 300 nM

O=C(N[C@@H](CC1CCCCC1)C(=O)N[C@@H](C[C@@H]1CCNC1=O)C(O)S(=O)(=O)O)OCc1cccc(Cl)c1 (stereo partly drawn) [Compound 26, reference compound]
IC50 ([2]; in μM, read-out: IC50): 0.1 µM | EC50 [3, 4]: 20 nM
